Patent US20260217765A1, “NOVEL ANTIMICROBIAL PEPTIDE DESIGNED FROM DUCK-DERIVED ANTIMICROBIAL PEPTIDE ANDUSE THEREOF” (INDUSTRY-ACADEMIC COOPERATION FOUNDATION, CHOSUN UNIVERSITY, priority 2023, published 2026)
Peptide text beside a SMILES is read from it.

Assays:
[1] = test system: Acinetobacter baumannii KCTC 2508; format: cell-based; conditions: various salt concentrations
Experimental: To determine whether the peptides prepared in <Example 1> retain antimicrobial activity under salt concentrations present in vivo, the minimal inhibitory concentration (MIC) of the peptides was measured under various salt concentrations. Specifically, among the bacterial strains listed in Table 2, Acinetobacter baumannii KCTC 2508 was cultured in suitable medium to the mid-log phase, then diluted to a concentration of 2×10^4 cells/100 μL and dispensed into a microtiter plate (Nunc, USA). The peptides prepared in <Example 1> were serially diluted two-fold under various salt concentration conditions and added to the wells, followed by incubation at 37° C. for 18 hours. Absorbance at 600 nm was measured using a microtiter plate reader (Merck ELISA reader, Germany) to determine the MIC values for each strain. The parent peptide dCATH was used as a control.

sheep red blood cells = format: cell-based
Experimental: To evaluate the cytotoxicity of the peptides prepared in <Example 1>, their hemolytic activity against red blood cells was measured. Hemolysis refers to the rupture of red blood cells with the release of hemoglobin into the surrounding fluid. The cytotoxicity of the novel peptides of the present disclosure was assessed by measuring their hemolytic activity against erythrocytes.
Specifically, sheep red blood cells were diluted with PBS (pH 7.0) to a final concentration of 8%. The peptides dCATH, dCATH-A1, dCATH-A2, dCATH-A3, dCATH-A4, dCATH-A5, dCATH-A6, and dCATH-A7 were each added to the wells at concentrations of 3.13, 6.25, 12.5, 25.0, 50.0, and 100.0 μM/well and reacted at 37° C. for 1 hour. Thereafter, the samples were centrifuged at 1, 000×g, and the absorbance of hemoglobin in the supernatant was measured at 414 nm. As a control for complete cell lysis, 1% Triton X-100 (Sigma, USA) was used and incubated under the same conditions. The absorbance of this sample was set to represent 100% hemolysis, and hemolytic activity (%) for each peptide was calculated using the following Equation 1.
In the above equation, Absorbance A is the absorbance at 414 nm of the reaction solution treated with each peptide, Absorbance B is the absorbance at 414 nm of the PBS-treated reaction solution, and Absorbance C is the absorbance at 414 nm of the reaction solution treated with 1% Triton X-100.

[2] = test system: Acinetobacter baumannii isolate 10; assay: In vivo antimicrobial activity, intranasal lung infection, H&E staining; set-up: species or system BALB/c mice; conditions: mice intranasally infected with A. baumannii isolate 10, peptide intranasal, day 3
Experimental: Among the peptides prepared in <Example 1>, dCATH-A7 was selected to evaluate in vivo antimicrobial activity.
Among the antibiotic-resistant strains, Acinetobacter baumannii isolate 10 was selected for the experiment. The bacteria were washed three times with PBS buffer prior to use. After a one-week acclimation period, BALB/c mice (6 weeks old) were intranasally infected with 20 μL of a 1×10^9 CFU/mL bacterial suspension. Following infection, the peptide was prepared at a concentration of 5 mg/mL and administered intranasally. On day 3, lung tissue samples were collected and subjected to hematoxylin and eosin (H&E) staining to assess tissue damage.

| antimicrobial activity (MIC) under salt conditions compared to the parent peptide dCATH [1] | SMILES | hemolytic activity at concentrations corresponding to antimicrobial activity (sheep red blood cells) | lung tissue damage (H&E staining) [2] |
| --- | --- | --- | --- |
| lower MIC values than the control | CC[C@H](C)[C@H](NC(=O)[C@H](C)NC(=O)[C@H](CCCCN)NC(=O)[C@H](CCCCN)NC(=O)[C@@H](NC(=O)[C@H](CC(C)C)NC(=O)[C@H](CCC(N)=O)NC(=O)[C@H](C)NC(=O)[C@H](C)NC(=O)[C@H](CCCNC(=N)N)NC(=O)[C@@H](N)CCCCN)C(C)C)C(=O)N[C@@H](CCCCN)C(=O)N[C@@H](CCCCN)C(=O)N[C@@H](Cc1ccc(O)cc1)C(=O)N[C@@H](CCCNC(=N)N)C(=O)N[C@@H](C)C(=O)N[C@@H](Cc1c[nH]c2ccccc12)C(=O)N[C@@H](CCCCN)C(N)=O [dCATH-A7, KRAAQLVKKAIKKYRAWK] (H-KRAAQLVKKAIKKYRAWK-NH2; N-terminus assumed) | no hemolytic activity | minimal fibrosis and overall reduced tissue damage |
| lower MIC values than the control | CC[C@H](C)[C@H](NC(=O)[C@H](C)NC(=O)[C@H](CCCCN)NC(=O)[C@H](CCCCN)NC(=O)[C@@H](NC(=O)[C@H](CC(C)C)NC(=O)[C@H](CCC(N)=O)NC(=O)[C@H](C)NC(=O)[C@H](C)NC(=O)[C@H](CCCNC(=N)N)NC(=O)[C@@H](N)CCCCN)C(C)C)C(=O)N[C@@H](CCCCN)C(=O)N[C@@H](CCCCN)C(=O)N[C@@H](Cc1ccc(O)cc1)C(=O)N[C@@H](CCCNC(=N)N)C(=O)N[C@@H](C)C(=O)N[C@@H](Cc1c[nH]c2ccccc12)C(=O)N[C@@H](CCCCN)C(=O)N[C@@H](CCCNC(=N)N)C(=O)N[C@@H](CCCNC(=N)N)C(N)=O [dCATH-A6] (H-KRAAQLVKKAIKKYRAWKRR-NH2; N-terminus assumed) | no hemolytic activity | – |
